Measurements: patent publication US20090069302A1 (SMITHKLINE BEECHAM CORPORATION, priority 2006, published 2009)

Molecular target: T1, AXOR109 (Homo sapiens, UniProt Q8TDU6)
T1 construct: expressed in transfected cells; host or cells: melanophore cells, transfected by electroporation
T1 sequence (Q8TDU6 1-330): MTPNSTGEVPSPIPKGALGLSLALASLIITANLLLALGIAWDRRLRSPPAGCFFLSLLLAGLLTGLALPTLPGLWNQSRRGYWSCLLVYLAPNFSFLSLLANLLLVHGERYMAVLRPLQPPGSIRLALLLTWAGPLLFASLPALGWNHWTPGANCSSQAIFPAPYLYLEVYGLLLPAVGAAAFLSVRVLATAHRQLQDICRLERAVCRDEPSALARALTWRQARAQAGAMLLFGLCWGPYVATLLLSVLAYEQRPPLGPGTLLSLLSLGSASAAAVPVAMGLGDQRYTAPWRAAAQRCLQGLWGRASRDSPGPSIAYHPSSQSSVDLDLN
Experiment: Human AXOR109/Melanophore Assay
Assay type: cell-based
Settings: melanophore assay; for Emax: 1 h, normalized to alpha-MSH system max; for EC50: AXOR109 transfected melanophores
Description: AXOR109 is a Gs-coupled receptor and therefore increases intracellular cAMP leading to melanosome dispersion. Compounds of the present invention were characterized in a melanophore assay as described in Jayawickreme C K, et al., Current Protocols in Pharmacology (2005) 12.9.1-12.9.16. Briefly, melanophore cells are transfected by electroporation with AXOR109 expressing cDNA. Cells are then plated in 384 well clear bottom plates at 8E3 cells per well in 50 μl of conditioned fibroblast media (CFM). Compounds to be tested are serially diluted 3-fold in DMSO and further diluted 1:100 with melanophore assay buffer (MAB)+10 nM Melatonin to yield 11 point concentration response curves. Following 2 hour incubation with MAB+1% DMSO+10 nM Melatonin, initial transmittance is read on a TwisterII/Spectramax plate reader. Compounds are then added to the cells and incubated for 1 hour, and final transmittance is read as before. Results are compared to vehicle (MAB+1% DMSO+10 nM Melatonin) and to a positive control (MAB+1% DMSO+10 nM Melatonin+200 nM alpha-MSH). Data are calculated for each well as follows: 1-(Transmitance-final/Transmitance-initial). Each well result is then normalized to alpha-MSH, the system max control for Gs/Gq coupled receptors using the following equation: (ObjX−Control1)/(Control2−Control1)*100. The percent system max is used to generate the pEC50 using the equation: y=((Vmax*x̂n)/(K̂n+x̂n))+Y2. Acceptable Z-prime values should be >0.4. Compounds of the present invention have a pEC50≧5.0 in the above described assay.

Structure (SMILES) | Emax [%] | EC50 [µM]
COc1ccc(S(=O)(=O)N2CCC(N(CC(C)C)S(=O)(=O)c3ccc(OC)c(OC)c3)C2)cc1OC (stereo not drawn) [Example 57, N-(1-{[3,4-bis(methyloxy)phenyl]sulfonyl}-3-pyrrolidinyl)-3,4-bis(methyloxy)-N-(2-methylpropyl)benzenesulfonamide] | 51 to 75 | 1.26 to 10
COc1ccc(S(=O)(=O)N2CCC(N(CC3CCC3)S(=O)(=O)c3ccc(OC)c(OC)c3)C2)cc1OC (stereo not drawn) [Example 58, N-(1-{[3,4-bis(methyloxy)phenyl]sulfonyl}-3-pyrrolidinyl)-N-(cyclobutylmethyl)-3,4-bis(methyloxy)benzenesulfonamide] | 76 to 100 | 1.26 to 10
CCCN([C@H]1CCN(S(=O)(=O)c2ccc(OC)c(OC)c2)C1)S(=O)(=O)c1ccc(OC)c(OC)c1 [Example 61, N-((3S)-1-{[3,4-bis(methyloxy)phenyl]sulfonyl}-3-pyrrolidinyl)-3,4-bis(methyloxy)-N-propylbenzenesulfonamide] | 76 to 100 | 1.26 to 10
CCN([C@H]1CCN(S(=O)(=O)c2ccc(OC)c(OC)c2)C1)S(=O)(=O)c1ccc(OC)c(OC)c1 [Example 62, N-((3S)-1-{[3,4-bis(methyloxy)phenyl]sulfonyl}-3-pyrrolidinyl)-N-ethyl-3,4-bis(methyloxy)benzenesulfonamide] | 76 to 100 | 1.26 to 10
COc1ccc(S(=O)(=O)N2C[C@H](C)N(S(=O)(=O)c3ccc(OS(C)(=O)=O)c(OC)c3)C[C@@H]2C)cc1OC [Example 63, 4-[((2S,5S)-4-{[3,4-bis(methyloxy)phenyl]sulfonyl}-2,5-dimethyl-1-piperazinyl)sulfonyl]-2-(methyloxy)phenyl methanesulfonate] |  | 1.26 to 10
COc1ccc(S(=O)(=O)N(C)CCN(C)S(=O)(=O)c2ccc3c(c2)n(C)c(=O)n3C)cc1OC [Example 65, N-methyl-N-{2-[{[3,4-bis(methyloxy)phenyl]sulfonyl}(methyl)amino]ethyl}-1,3-dimethyl-2-oxo-2,3-dihydro-1H-benzimidazole-5-sulfonamide] | 51 to 75 | 1.26 to 10
COc1ccc(S(=O)(=O)NCC(C)N(C)S(=O)(=O)c2ccc(OC)c(OC)c2)cc1OC (stereo not drawn) [Example 66, N-[2-({[3,4-bis(methyloxy)phenyl]sulfonyl}amino)-1-methylethyl]-N-methyl-3,4-bis(methyloxy)benzenesulfonamide] | 51 to 75 | 1.26 to 10
COc1ccc(S(=O)(=O)N2C[C@H](C)N(S(=O)(=O)c3cccc4cccnc34)C[C@@H]2C)cc1OC [Example 69, 8-[((2S,5S)-4-{[3,4-bis(methyloxy)phenyl]sulfonyl}-2,5-dimethyl-1-piperazinyl)sulfonyl]quinoline] | 76 to 100 | 1.26 to 10
COc1ccc(S(=O)(=O)N2C[C@H](C)N(S(=O)(=O)c3ccc(OC)c(OC)c3)C[C@@H]2C)cc1 [Example 72, (2S,5S)-1-{[3,4-bis(methyloxy)phenyl]sulfonyl}-2,5-dimethyl-4-{[4-(methyloxy)phenyl]sulfonyl}piperazine] | > 100 | 0.126 to 1
COc1ccc(S(=O)(=O)N(C)CCN(C)S(=O)(=O)c2ccc3c(c2)OCCCO3)cc1OC [Example 73, N-{2-[{[3,4-bis(methyloxy)phenyl]sulfonyl}(methyl)amino]ethyl}-N-methyl-3,4-dihydro-2H-1,5-benzodioxepin-7-sulfonamide] | 76 to 100 | 1.26 to 10
CCN(C[C@H](C)N(CC)S(=O)(=O)c1ccc(OC)c(OC)c1)S(=O)(=O)c1ccc(OC)c(OC)c1 [Example 74, N,N′-(2S)-1,2-propanediylbis[N-ethyl-3,4-bis(methyloxy)benzenesulfonamide]] | 76 to 100 | 0.126 to 1
CC=CCN(CCN(C)S(=O)(=O)c1ccc(OC)c(OC)c1)S(=O)(=O)c1ccc(OC)c(OC)c1 [Example 75, N-{2-[{[3,4-bis(methyloxy)phenyl]sulfonyl}(2-buten-1-yl)amino]ethyl}-N-methyl-3,4-bis(methyloxy)benzenesulfonamide] | 76 to 100 | 0.126 to 1
COc1ccc(S(=O)(=O)N2CCN(S(=O)(=O)c3ccc(OC)c(OC)c3)C(=O)C2)cc1OC [Example 76, 1,4-bis{[3,4-bis(methyloxy)phenyl]sulfonyl}-2-piperazinone] | 51 to 75 | 1.26 to 10
COc1ccc(S(=O)(=O)N[C@@H]2CCN(S(=O)(=O)c3ccc(OC)c(OC)c3)C2)cc1OC [Example 77, N-((3R)-1-{[3,4-bis(methyloxy)phenyl]sulfonyl}-3-pyrrolidinyl)-3,4-bis(methyloxy)benzenesulfonamide] | 76 to 100 | 1.26 to 10
COc1ccc(S(=O)(=O)N2CCN(S(=O)(=O)c3ccc4c(c3)OCCO4)CC2)cc1OC [Example 78, 1-{[3,4-bis(methyloxy)phenyl]sulfonyl}-4-(2,3-dihydro-1,4-benzodioxin-6-ylsulfonyl)piperazine] | 51 to 75 | 1.26 to 10
COc1cccc(S(=O)(=O)N2[C@H](C)CN(S(=O)(=O)c3ccc(OC)c(OC)c3)C[C@@H]2C)c1 [Example 80] | 51 to 75 | 1.26 to 10
COc1ccc(S(=O)(=O)N2CCN(S(=O)(=O)c3ccc(OC)c(OC)c3)c3ccccc32)cc1OC [Example 83] | 51 to 75 | 0.126 to 1
COc1ccc(S(=O)(=O)N2CC[C@@H](N(C)S(=O)(=O)c3ccc(OC)c(OC)c3)C2)cc1OC [Example 85] | 51 to 75 | 0.126 to 1
COc1ccc(S(=O)(=O)N2C[C@@H]3C[C@H]2CN3S(=O)(=O)c2ccc(OC)c(OC)c2)cc1OC [Example 86] | 76 to 100 | 1.26 to 10

Results, then the compound that gave them:

Emax [%] | EC50 [µM] | Structure (SMILES)
0 to 50 | 0.126 to 1 | CCCN(C1CCN(S(=O)(=O)c2ccc(OC)c(OC)c2)C1)S(=O)(=O)c1ccc(OC)c(OC)c1 (stereo not drawn) [Example 56, N-(1-{[3,4-bis(methyloxy)phenyl]sulfonyl}-3-pyrrolidinyl)-3,4-bis(methyloxy)-N-propylbenzenesulfonamide]
76 to 100 | 0.126 to 1 | CCCN([C@@H]1CCN(S(=O)(=O)c2ccc(OC)c(OC)c2)C1)S(=O)(=O)c1ccc(OC)c(OC)c1 [Example 59, N-((3R)-1-{[3,4-bis(methyloxy)phenyl]sulfonyl}-3-pyrrolidinyl)-3,4-bis(methyloxy)-N-propylbenzenesulfonamide]
76 to 100 | < 0.126 | CCN([C@@H]1CCN(S(=O)(=O)c2ccc(OC)c(OC)c2)C1)S(=O)(=O)c1ccc(OC)c(OC)c1 [Example 60, N-((3R)-1-{[3,4-bis(methyloxy)phenyl]sulfonyl}-3-pyrrolidinyl)-N-ethyl-3,4-bis(methyloxy)benzenesulfonamide]
76 to 100 | 0.126 to 1 | CCc1cc(S(=O)(=O)N2CCN(S(=O)(=O)c3ccc(OC)c(OC)c3)CC2)ccc1OC [Example 64, 1-{[3,4-bis(methyloxy)phenyl]sulfonyl}-4-{[3-ethyl-4-(methyloxy)phenyl]sulfonyl}piperazine]
 | 0.126 to 1 | COc1ccc(S(=O)(=O)N2C[C@H](C)N(S(=O)(=O)c3ccc(OC)c(OC)c3)C[C@@H]2C)cc1F [Example 67, (2S,5S)-1-{[3,4-bis(methyloxy)phenyl]sulfonyl}-4-{[3-fluoro-4-(methyloxy)phenyl]sulfonyl}-2,5-dimethylpiperazine]
76 to 100 | 0.126 to 1 | CCc1cc(S(=O)(=O)N2C[C@H](C)N(S(=O)(=O)c3ccc(OC)c(OC)c3)C[C@@H]2C)ccc1OC [Example 68, (2S,5S)-1-{[3,4-bis(methyloxy)phenyl]sulfonyl}-4-{[3-ethyl-4-(methyloxy)phenyl]sulfonyl}-2,5-dimethylpiperazine]
> 100 | 0.126 to 1 | COc1ccc(S(=O)(=O)N2C[C@H](C)N(S(=O)(=O)c3ccc4c(c3)OCO4)C[C@@H]2C)cc1OC [Example 70, (2S,5S)-1-(1,3-benzodioxol-5-ylsulfonyl)-4-{[3,4-bis(methyloxy)phenyl]sulfonyl}-2,5-dimethylpiperazine]
76 to 100 | 0.126 to 1 | COc1ccc(S(=O)(=O)N2C[C@H](C)N(S(=O)(=O)c3ccc4c(c3)OCCO4)C[C@@H]2C)cc1OC [Example 71, (2S,5S)-1-{[3,4-bis(methyloxy)phenyl]sulfonyl}-4-(2,3-dihydro-1,4-benzodioxin-6-ylsulfonyl)-2,5-dimethylpiperazine]
> 100 | < 0.126 | COc1ccc(S(=O)(=O)N2C[C@@H](C)N(S(=O)(=O)c3ccc(OC)c(OC)c3)[C@@H](C)C2)cc1OC [Example 79, cis-1,4-bis{[3,4-bis(methyloxy)phenyl]sulfonyl}-2,6-dimethylpiperazine]
